These results are taken from patent US20140343089A1, “NOREPINEPHRINE AND SELECTIVE SEROTONIN RECEPTOR BLOCKER AND USE THEREOF” (priority 2011, published 2014).

Data set [1] concerns ICR mice. As to the kind of experiment: immobility time of tail suspension in mice. In kind it is in vivo. The settings on record: i.p.; for immobility time of tail suspension in mice: 60 minutes after dosing. As for the experimental part:
(§1) Animals used for experiments were adult male ICR mice weighing 18˜25 g, housed in 8 pcs/cages, regulated with a 12/12 hour light/dark cycle, maintained at a constant temperature of 23±1° C. and a humidity of 50˜60% and allowed ad libitum access to rodent chow and water. After animals were purchased from the experimental animal center and performed an adaptive housing, the experiment was allowed to start.
(§2) After animal adaptive housing, all the animals were randomly divided into three groups:
(§3) Group one: negative control group, intraperitoneally injected with 1% DMSO in physiological saline (10.0 ml/kg, i.p.);
Group two: experimental drug group, the mice were intraperitoneally injected respectively with different doses of the test compound Co. 1: 0.1, 0.5, 1, 5 and 10 mg/kg, i.p., the drug was formulated in 1% DMSO in physiological saline;
(§4) Group three: positive drug control group, the mice were intraperitoneally injected with Desipramine (20 mg/kg, i.p., the drug was formulated in 1% DMSO in physiological saline).
The experiment employed Shanghai Jiliang animal behavior video analysis system, wherein the experimental environment was kept absolutely silent, when grabbing animals and administrating, movements were gentle to minimize adverse reactions of mental condition and emotion brought by external stimulus. 60 minutes after dosing, the site 20 mm from the tail end was fixed and the mice were hung upside-down in an activity box for 6 minutes. The immobility time in later 4 minutes was analyzed.

Data set [2] concerns ICR mice. As to the kind of experiment: spontaneous activity in mice. The format is in vivo. To be noted: each test dose (0.1, 0.5, 1, 5 and 10 mg/kg, i.p.); 60 minutes after dosing; P>0.05 compared with negative control. As for the experimental part:
as §1, §2, §3
Group two: experimental drug group, the mice were intraperitoneally injected respectively with different doses of test compound Co. 1: 0.1, 0.5, 1, 5 and 10 mg/kg, i.p., the drug was formulated in 1% DMSO in physiological saline. […]
The experiment employed Shanghai Jiliang animal behavior video analysis system, wherein the experimental environment was kept absolutely silent, when grabbing animals and administrating, movements were gentle to minimize adverse reactions of mental condition and emotion brought by external stimulus. […] The spontaneous activity box was connected to a recording apparatus and the activity conditions of mice within 30-60 minutes were recorded. The effects of drug or control substances on spontaneous activity in mice were determined.

The nature of data set [3]: rPPB. In kind it is in vitro ADME. To be noted: rat plasma protein binding; read-out: rPPB % bound (converted).
A short description of data set [4]: hPPB. To be noted: human plasma protein binding; read-out: hPPB % bound (converted). In kind it is in vitro ADME.
Data set [5] can be described thus: In vivo rat PK. To be noted: for Cmax / half-life / bioavailability: po; for half-life: read-out: In vivo rat PK T½ (p.o.) (converted); for clearance: iv, read-out: In vivo rat PK CL (i.v.); for bioavailability: read-out: In vivo rat PK F %. From the text:
The experiment was repeated for three times and the mean value was taken.

Data set [6] deals with ICR mice. Description: immobility time of forced swimming in mice. The format is in vivo. To be noted: i.p. The protocol: as §1, §2, §3
Group two: experimental drug group, the mice were intraperitoneally injected respectively with different doses of test compound Co. 3: 0.1, 0.5, 1, 5 and 10 mg/kg, i.p., the drug was formulated in 1% DMSO in physiological saline;
as §4
The mice were placed in a large beaker with a height of about 40 cm and an internal diameter of about 19 cm, loaded with water with a temperature of 24˜25° C. inside. The water level reached 22 cm height (Porsolt et al., 1977). […] 30 minutes, or 60 minutes later, the mice were placed into a beaker loaded with water, and immobility time of animals within 5 minutes was measured. […]

The conditions of data set [7]: from Zhao, Chinese Journal of Psychiatry, Vol. 35, No. 4; cited from earlier work.
Data set [8] in a line: rMics binding. To be noted: rat microsomes; read-out: rMics binding % bound (converted). In kind it is in vitro ADME.
Data set [9] in a line: hMics binding. In kind it is in vitro ADME. To be noted: human microsomes; read-out: hMics binding % bound (converted).

In the case of `CN1C[C@@H]2c3ncccc3Oc3cc(Cl)ccc3[C@@H]2C1` [Co. 1], the “immobility time of tail suspension in mice” value in data set [1] (0.1 and 0.5 mg/kg) was “no effect”; in data set [1] (1.0, 5.0 and 10 mg/kg, P<0.05-0.01 compared to the negative control group), “significantly inhibited”. The “inhibitory effect on the immobility time of tail suspension compared to positive drug Desipramine” value in data set [1] (Desipramine 20 mg/kg) is “similar”. For the same molecule, in data set [2], the “spontaneous activity in mice” value was “no significant effect”. For the same molecule, the fraction unbound was 0.2 in [3] and 0.13 in data set [4]. In [5], this molecule showed a Cmax of 51 ng/mL. Moreover, in data set [5], the half-life was 4.6 h.

As to `CN1C[C@@H]2c3ncccc3Oc3ccccc3[C@@H]2C1` [Co. 2], the fraction unbound in [3] was 0.63. For the same molecule, the fraction unbound in data set [4] was 0.45. Further, in [5], the clearance amounted to 139 mL/min/kg, the concentration peaked (Cmax) at 17 ng/mL, the bioavailability was 12% and the half-life was 8.9 h.

`CCN1C[C@@H]2c3ncc(C)cc3Oc3cc(F)c(C)cc3[C@@H]2C1` [Co. 3]: in data set [6] (0.5, 1.0, 5.0 and 10 mg/kg, P<0.05-0.01 compared to the negative control group), the “immobility time of forced swimming in mice” value is on record as “significantly extended”. Besides, the “effect on immobility time of forced swimming compared to positive drug Desipramine” value in data set [6] (Desipramine 20 mg/kg, P<0.05) is reported as “stronger”.

Turning to `c1ccc2c(c1)Cc1cccnc1N1CCNCC21` (stereo not drawn) [Demethylated mirtazapine], in data set [7], the “share of the drug activity of mirtazapine” value was 3%-10%.

In the case of `CN1CCN2c3ncccc3Cc3ccccc3C2C1` (stereo not drawn) [Mirtazapine, reference compound], the fraction unbound was 0.79 in data set [8], 0.11 in data set [3], 0.2 in [4] and 0.69 in data set [9]. Also, the clearance in data set [5] came out at 101 mL/min/kg. This molecule also gave a maximum concentration (Cmax) in data set [5] of 30 ng/mL. In addition, the bioavailability in data set [5] is 14%.
